Assay results as given in patent US20140228311A1, “CRYSTALLIZATION OF IDARUBICIN HYDROCHLORIDE” (HERAEUS PRECIOUS METALS GMBH & CO. KG, priority 2011, published 2014).
Structures can show the parent of a compound that is named as a salt.

Columns and labels:
Format in all cases: physicochemical
[1] = Storage stability of crystalline idarubicin hydrochloride in drying chamber, content analysed by HPLC; details: for Purity of idarubicin hydrochloride: HPLC
Procedure: The crystalline idarubicin hydrochloride obtained in Example 1 was studied for its stability relative to storage at temperatures of 25° C. and 40° C. for various time periods. For this purpose, aliquots of the obtained crystalline idarubicin hydrochlorides were encapsulated individually. One half of the aliquots were stored in a drying chamber at 25° C., the other half were stored in a different drying chamber at 40° C. After the times specified below, individual samples were taken from the drying chambers and the content of idarubicin hydrochloride was analyzed by high performance liquid chromatography (HPLC).

[2] = Thermodynamic stability of the crystalline form versus amorphous form; details: compared with amorphous idarubicin hydrochloride
[3] = Storage of currently available idarubicin hydrochloride under typical storage conditions; details: hydrolysis of the sugar group, increase in 4-demethoxydaunomycinone

SMILES | Stability for long storage ([1]; long storage under elevated temperatures) | Purity of idarubicin hydrochloride ([1]; storage at 25° C., 0 weeks) | Purity of idarubicin hydrochloride ([1]; storage at 25° C., 1 week) | Purity of idarubicin hydrochloride ([1]; storage at 25° C., 2 weeks) | Purity of idarubicin hydrochloride ([1]; storage at 25° C., 4 weeks) | Purity of idarubicin hydrochloride ([1]; storage at 25° C., 8 weeks) | Purity of idarubicin hydrochloride ([1]; storage at 25° C., 24 weeks) | Purity of idarubicin hydrochloride ([1]; storage at 40° C., 0 weeks) | Purity of idarubicin hydrochloride ([1]; storage at 40° C., 1 week) | Purity of idarubicin hydrochloride ([1]; storage at 40° C., 2 weeks) | Purity of idarubicin hydrochloride ([1]; storage at 40° C., 4 weeks) | Purity of idarubicin hydrochloride ([1]; storage at 40° C., 8 weeks) | Purity of idarubicin hydrochloride ([1]; storage at 40° C., 24 weeks) | Thermodynamic stability [2] | Decomposition during storage [3]
CC(=O)[C@]1(O)Cc2c(O)c3c(c(O)c2[C@@H](O[C@H]2C[C@H](N)[C@H](O)[C@H](C)O2)C1)C(=O)c1ccccc1C3=O [crystalline idarubicin hydrochloride, idarubicin hydrochloride] | extraordinarily high stability | 99.95 | 99.90 | 99.87 | 99.93 | 99.84 | 99.91 | 99.95 | 99.87 | 99.87 | 99.92 | 99.83 | 99.91 | thermodynamically more stable than amorphous idarubicin hydrochloride | 
CC(=O)[C@]1(O)Cc2c(O)c3c(c(O)c2[C@@H](O[C@H]2C[C@H](N)[C@H](O)[C@H](C)O2)C1)C(=O)c1ccccc1C3=O [idarubicin hydrochloride] |  |  |  |  |  |  |  |  |  |  |  |  |  |  | steady decomposition
